The test system of data set [1] is HT29 SN38 resistant colon cancer cells. Briefly: Cell viability (MTT assay). The conditions noted are these: for cell viability, % of untreated control cells: HT29 SN38 resistant. Format: cell-based. As to the method:
(§1) SN38 was applied to a SN38 sensitive colon cancer cell line (“HT29 parental”) and to a SN38 resistant colon cancer cell line (“HT29 SN38 resistant”).
(§2) The Log Concentration (μM) used are—1 for SN38. Data represents cell viability data (MTT assay) and cells were incubated with drugs for 72 hours.
The Log Concentrations (μM) used are—1 for SN38, and 1.5 for both Srpkin340 and Sphinx 31. Data represents cell viability data (MTT assay) and cells were incubated with drugs for 72 hours.

In data set [2] the test system is HT29 parental colon cancer cells. In words: Cell viability (MTT assay). It is filed as cell-based. The conditions noted are these: SN38 Log Concentration (μM) -1, 72 hours. The method, then:
as §1, §2
On the technique in general: Tetrazolium dyes change colour on reduction, which living cells bring about.

SMILES strings stand for the structures.

On to `CCc1c2c(nc3ccc(O)cc13)-c1cc3c(c(=O)n1C2)COC(=O)[C@]3(O)CC` [SN38, reference compound], for which the “cell viability, % of untreated control cells” value in data set [1] (SN38 0.1 μM alone, 72 hours, Example 4) is recorded as 75%; in data set [1] (SN38 Log Concentration (μM) -1, 72 hours, Example 3), 73%; in data set [2] it was 27%.

Turning to `O=C(Nc1cc(C(F)(F)F)ccc1N1CCN(Cc2ccccn2)CC1)c1ccc(-c2ccncc2)o1` [Sphinx31, reference compound], the “restoration of SN38 sensitivity in SN38 resistant HT29 colon cancer cells” value in data set [1] (Log Concentration (μM) 1.5 of inhibitor with SN38 -1, 72 hours) is listed as “can restore the SN38 sensitivity”.

(Values after patent US20210251963A1, “UREA DERIVATIVES FOR USE IN THE TREATMENT OF SUBJECTS WITH ELEVATED EXPRESSION AND/OR ACTIVITY OF SRPK1” (Scandion Oncology A/S, priority 2018, published 2021).)
